According to patent publication US20170189391A1, “Protein kinase C inhibitor for treating triple-negative breast cancer” (Macau University of Science ang Technology, priority 2015, published 2017):

Assays:
[1] = system: TNBC cell lines; experiment: Western blotting of cleaved PARP (cPARP); assay type: cell-based, human; details: TNBC compared with non-TNBC cell lines, after chelerythrine treatment
Description: (§1) Four Non-TNBC cell lines and four TNBC cell lines as mentioned above were treated with chelerythrine (CHE, 5 μM) for 24 hours. […] Reprehensive pictures are shown (400×). […] FIGS. 3C, 3D and 3E show the representative contour diagrams of FITC Annexin V/PI flow cytometry of cells. Fractions of apoptotic cells were quantified. Average values are calculated from three independent experiments (n=3). […] Apoptosis was analyzed by flow cytometry with Annexin V/PI staining. Representative contour diagrams and quantified data are shown. Average values are calculated from three independent experiments (n=3). Data is shown as mean±SD.
Protein samples were prepared by adding RIPA buffer with protease inhibitor cocktail (Roche) to cells and diluted in SDS-PAGE protein sample buffer. Samples were heated for 5 minutes at 95° C. before fractionation on SDS-polyacrylamide gels. The proteins were then transferred to Immobilon P (Millipore) and incubated with primary antibodies overnight at 4° C. The membranes were then washed with TBST and incubated with the appropriate horseradish peroxidase-conjugated secondary antibodies at room temperature. Proteins were visualized with SuperSignal West Dura Extended Duration Substrate or SuperSignal West Pico Chemiluminescent Substrate (Thermo Scientific).

[2] = system: non-TNBC cells; experiment: Colony formation assay; assay type: cell-based, human; details: treatment for 48 hours, chelerythrine 5 μM (FIG. 1C)
Description: (§2) Four non-triple-negative breast cancer (Non-TNBC) cell lines (MCF7, ZR-75-1, SK-BR-3 and MDA-MB-453) and four triple-negative breast cancer (TNBC) cell lines (MDA-MB-231, BT549, HCC1937 and MDA-MB-468) were used to determine the growth inhibition effect of chelerythrine. […] The cell number at each chelerythrine concentration is represented as a percentage of control (treatment without chelerythrine). Average values are calculated from three independent experiments performed in duplicate (n=3). […] The cell number at each time point is represented as a percentage of control (treatment without chelerythrine). Average values are calculated from three independent experiments performed in duplicate (n=3). […] Representative colony formation assay plates are shown, which are quantified by counting colony number (n=4). Data is shown as mean±SD. […] Cells were then washed with PBS, plated in drug-free medium in 6-well plates at densities of 2,000 cells/well and incubated for 7-10 days in the absence of drug. Colonies were stained with 0.2% (w/v) crystal violet in buffered formalin for 10 minutes. The number of colonies was counted.

[3] = system: TNBC cells; experiment: Colony formation assay; assay type: cell-based, human; details: chelerythrine 5 μM (FIG. 1C)
Description: as §2

[4] = system: MDA-MB-231; experiment: In vitro cell proliferation assay (SRB assay); assay type: cell-based; details: Homo sapiens; MDA-MB-231 (TNBC), 72-hour treatment
Description: (§3) The anti-proliferative effects of tested agents on breast cancer cell lines were assessed by sulforhodamine B (SRB) colorimetric assay as previously described. Briefly, cells were seeded in 96-well plates in a volume of […] at densities of 5,000˜40,000 cells per well. After overnight incubation at 37° C. in a humidified incubator with 5% CO2, 100 ml medium containing agents (2 X indicated concentrations) were added. After 72-hour treatment, attached cells were fixed with 50 ml cold 50% (w/v) trichloroacetic acid (TCA) for 1 hour at 4° C. and then stained with 100 ml 0.4% (w/v) SRB. The absorbency at 515 nm was measured using SpectraMax 190 microplate reader (Molecular Devices) after solubilizing the protein-bound dye with 200 ml 10 mM Tris base solution (pH 10.5). The IC50 value was defined as the concentration required for a 50% reduction in cell growth.
(§4) To test in vitro anti-proliferative activity of chelerythrine on breast cancer cells, four TNBC cell lines (MDA-MB-231, BT-549, HCC1937 and MDA-MB-468) and four non-TNBC cell lines (MCF7, ZR-75-1, SK-BR-3 and MDA-MB-453) were treated with a series of chelerythrine concentrations ranging from […] for 72 hours. […] On the contrary, the tested non-TNBC cell lines were relatively resistant to chelerythrine treatment on compared with the TNBC cell lines.

[5] = system: MCF7; experiment: In vitro cell proliferation assay (SRB assay); assay type: cell-based; details: Homo sapiens; MCF7 (Non-TNBC), 72-hour treatment
Description: as §3, §4

[6] = system: SK-BR-3; experiment: In vitro cell proliferation assay (SRB assay); assay type: cell-based; details: Homo sapiens; SK-BR-3 (Non-TNBC), 72-hour treatment
Description: as §3, §4

[7] = system: MDA-MB-468; experiment: In vitro cell proliferation assay (SRB assay); assay type: cell-based; details: Homo sapiens; MDA-MB-468 (TNBC), 72-hour treatment
Description: as §3, §4

[8] = system: BT-549; experiment: In vitro cell proliferation assay (SRB assay); assay type: cell-based; details: Homo sapiens; BT-549 (TNBC), 72-hour treatment
Description: as §3, §4

[9] = system: HCC1937; experiment: In vitro cell proliferation assay (SRB assay); assay type: cell-based; details: Homo sapiens; HCC1937 (TNBC), 72-hour treatment
Description: as §3, §4

[10] = system: MDA-MB-231; experiment: Flow-cytometric analysis of cell cycle; assay type: cell-based, human; details: MDA-MB-231, chelerythrine 5 mM (so in the source), 24 hours
Description: (§5) Four Non-TNBC cell lines and four TNBC cell lines as mentioned above were treated with chelerythrine (CHE, 5 μM) for 24 hours. […] Average values are calculated from three independent experiments (n=3). Data is shown as mean±SD.
(§6) Flow cytometric analyses were performed to define the cell cycle distribution […] after treatment with […] chelerythrine. Cells were harvested, washed twice with PBS, resuspended in 0.5 ml PBS (1,000,000˜2,000,000 cells/ml). Then 4 ml 70% ethanol was added and the mixture was kept at −20° C. for 2 hours to fix the cells. Cells were stained for total DNA content with a solution containing […] propidium iodide, 200 μg/ml DNase-free RNase A, and 0.1% triton X-100 in PBS for 30 minutes at room temperature. Cell cycle distribution was analyzed by flow cytometry (BD Bioscience). The percentages of the total cell population in the four different phases (Sub-G0/G1, G0/G1, S, G2/M) of cell cycle was determined using FlowJo software.

[11] = system: non-TNBC cells; experiment: Flow-cytometric analysis of cell cycle; assay type: cell-based, human; details: chelerythrine 5 mM (so in the source), 24 hours
Description: as §5, §6

[12] = system: MDA-MB-468; experiment: Flow-cytometric analysis of cell cycle; assay type: cell-based, human; details: MDA-MB-468, chelerythrine 5 mM (so in the source), 24 hours
Description: as §5, §6

[13] = system: BT-549; experiment: Flow-cytometric analysis of cell cycle; assay type: cell-based, human; details: BT-549, chelerythrine 5 mM (so in the source), 24 hours
Description: as §5, §6

[14] = system: HCC1937; experiment: Flow-cytometric analysis of cell cycle; assay type: cell-based, human; details: HCC1937, chelerythrine 5 mM (so in the source), 24 hours; 45.1% without treatment
Description: as §5, §6

[15] = system: MDA-MB-231; experiment: Flow-cytometric analysis of apoptosis (Annexin V/PI); assay type: cell-based, human; details: MDA-MB-231, 24 hours, chelerythrine 5 μM (FIG. 3)
Description: as §1
(§7) Cellular apoptosis was analyzed with BD Annexin V: Fitc Apoptosis Detection Kit I (BD Bioscience) by flow cytometry. Briefly cells were plated in 6-well plates (100,000˜400,000 cells/well) and treated with chelerythrine. At the indicated time point, cells were harvested, washed twice with cold PBS, and resuspended in 1X Binding Buffer at a concentration of 1,000,000 cells/ml. 100 μl cells were transferred to 1.5 ml conical tube and 5 μl FITC Annexin V and 5 μl propidium iodide were added. The mixture was gently vortexed and incubated at room temperature for 15 minutes in the dark, followed by adding 400 μl 1x Binding Buffer to each tube. Cells were filtered and analyzed by flow cytometry (BD Bioscience) within 1 hour. Total apoptotic cells (FITC Annexin V positive) were counted.

[16] = system: four non-TNBC cell lines; experiment: as above; assay type: cell-based, human; details: same treatment, 24 hours
Description: as §1, §7

[17] = system: MDA-MB-468; experiment: as above; assay type: cell-based, human; details: MDA-MB-468, 24 hours, chelerythrine 5 μM (FIG. 3)
Description: as §1, §7

[18] = system: T-549; experiment: as above; assay type: cell-based, human; details: T-549 (so in the source), 24 hours, chelerythrine 5 μM (FIG. 3)
Description: as §1, §7

[19] = system: HCC1937; experiment: as above; assay type: cell-based, human; details: HCC1937, 24 hours, chelerythrine 5 μM (FIG. 3)
Description: as §1, §7

[20] = system: TNBC cell lines (MDA-MB-231, BT-549, HCC1937 and MDA-MB-468); experiment: In vitro cell proliferation assay (SRB assay), four TNBC lines together; assay type: cell-based, human; details: for cell growth: 5 mM (so in the source) chelerythrine
Description: as §3, with “After 72-hour treatment, attached cells were fixed with 50 ml cold 50% (w/v) trichloroacetic acid (TCA) for 1 hour at 4° C. and then stained with 100 ml 0.4% (w/v) SRB.” left out
as §4

[21] = system: non-TNBC cells; experiment: Assessment of cell morphological changes (Hoechst 33258 staining); assay type: cell-based, human; details: 24 hours
Description: as §1
(§8) Cells were plated in 12-well plates (80,000-300,000 cells/well) and then treated with […] chelerythrine for 24 hours. After incubation, cells were collected, washed with PBS and stained with Hoechst 33258 (11.1 mg/ml) in buffered formalin solution containing 5.6% NP-40. Living and apoptotic cells were visualized through DAPI filter of fluorescence inverted microscope (Leica DM2500 Fluorescence Microscope) at ×400 magnification.

[22] = system: TNBC cells; experiment: as above; assay type: cell-based, human; details: 24 hours
Description: as §1, §8

[23] = system: all TNBC cell lines; experiment: Flow-cytometric analysis of cell cycle, all TNBC lines; assay type: cell-based, human; details: upon chelerythrine treatment, 24 hours
Description: as §5, §6

[24] = system: ZR-75-1; experiment: In vitro cell proliferation assay (SRB assay); assay type: cell-based, human; set-up: inhibitory effect at the highest concentration tested: dose or concentration left out as unconfirmed
Description: as §3, §4

[25] = system: MDA-MB-453; experiment: In vitro cell proliferation assay (SRB assay); assay type: cell-based, human; set-up: inhibitory effect at the highest concentration tested: dose or concentration left out as unconfirmed
Description: as §3, §4

[26] = system: non-TNBC cell lines (MCF7, ZR-75-1, SK-BR-3 and MDA-MB-453); experiment: In vitro cell proliferation assay (SRB assay), four non-TNBC lines together; assay type: cell-based, human
Description: as §3, §4

For `COc1ccc2c(c[n+](C)c3c4cc5c(cc4ccc23)OCO5)c1OC` [chelerythrine], the “cleaved nuclear poly (ADP-ribose) polymerase (cPARP), marker of apoptosis” value [1] was “detection of the cleaved nuclear poly (ADP-ribose) polymerase”, the colony formation ability [2] was “reserved largely of their colony formation ability” and the colony formation ability ([3]; treatment for 3 hours) was “dramatically decreased”. The Colony formation ([3]; treatment for 6 hours) was “almost no cells grew into colonies”, the IC50 [4] was 3 µM and the IC50 [5] was greater than 10 µM. It also gave an IC50 [6] greater than 10 µM, an IC50 [7] of 4.2 µM and an IC50 [8] of 2.6 µM. For the same molecule, the IC50 [9] was 3.6 µM, the cell cycle progression [10] was “no obvious changes” and the cell cycle distribution [11] was “basically unchanged”. For the same molecule, the cell cycle arrest [12] was “marked cell cycle arrest at G2/M phase”, the cell cycle progression [13] was “no obvious changes” and the “percentage of cells in G0/G1 phase” value [14] was 52.9%. The “mean percentages of apoptotic cells” value [15] was 67.8%, the “apoptosis induction / viability” value [16] was “remained viable” and the “mean percentages of apoptotic cells” value [17] was 35.3%. For the same molecule, the “mean percentages of apoptotic cells” value [18] was 51.0%, the “mean percentages of apoptotic cells” value [19] was 22.2% and the cell growth ([20]; 24 hour) was “significant reduction of cell growth”. For the same molecule, the cell growth ([20]; 72 hour) was “almost died out”, the IC50 ([20]; Homo sapiens, range over MDA-MB-231, BT-549, HCC1937 and MDA-MB-468, 72 hours, read-out: IC50 values, growth of TNBC cell lines) was 2.6 to 4.2 µM and the apoptotic morphological changes [21] was “not in non-TNBC cells”. For the same molecule, the apoptotic morphological changes [22] was “caused chromatin condensation and nuclear fragmentation”, the “nuclei with sub-G0/G1 DNA content characteristic of apoptosis” value [23] was “substantial proportion” and the IC50 ([24]; Homo sapiens, ZR-75-1 (Non-TNBC), 72-hour treatment) was greater than 10 µM. The “inhibitory effect at the highest concentration tested” value ([24]; ZR-75-1, highest concentration tested (so in the source), 72 hours) was “did not show any inhibitory effect”, the IC50 ([25]; Homo sapiens, MDA-MB-453 (Non-TNBC), 72-hour treatment) was greater than 10 µM and the “inhibitory effect at the highest concentration tested” value ([25]; MDA-MB-453, highest concentration tested, 72 hours) was “did not show any inhibitory effect”. The “inhibition of cell growth” value ([26]; 5 mM (so in the source) chelerythrine, each time point, versus TNBC lines) was “much less inhibition of cell growth” and the IC50 ([26]; Homo sapiens, 72 hours, read-out: IC50 values of all of the four non-TNBC cell lines) was greater than 10 µM.
